Data published in US20060229208A1, “Use of acyl cyclohexandione derivatives in conjunction with ethephon for treating pomaceous fruit” (BASF AKTIENGESELLSCHAFT, priority 2003, published 2006).

Legend:
[1] = test system: 12-year-old pear trees cv. "Conference" on BA rootstock; experiment: Flowering behavior in pears after treatment with prohexadione-calcium and ethephon (inflorescence count about one year after first application); assay type: in vivo
Protocol: 1. Flowering Behavior in Pears after Treatment with Prohexadione-calcium and Ethephon
12-year-old pear trees cv. “Conference” on BA rootstock at two different locations were treated first with prohexadione-calcium alone and secondly with a combination of prohexadione-calcium and ethephon. To this end, 4 groups of 5 trees each, which were uniformly distributed in an orchard, were sprayed with an active-ingredient-comprising spray mixture to run-off point (approx. 1000 l/ha). Three applications at intervals of approximately one month were carried out at the first location. At the second location, prohexadione-calcium was applied four times to a part of the groups of trees and three times to another part, the application interval being in each case approximately two weeks. The combination of prohexadione-calcium and ethephon was applied twice, with in each case one application with prohexadione-calcium alone being carried out before and after the combined application. Approximately one year after the first application, the number of inflorescences of untreated trees, of those which have been treated exclusively with prohexadione-calcium and of trees which had been treated with a combination of prohexadione-calcium and ethephon were counted and compared with each other.

[2] = test system: pome fruit, specifically apples and pears; experiment: Applicant's experiments on floral development in the year after treatment with acylcyclohexanedione growth regulators; assay type: in vivo
From the text: Thus, D. Sugar, D. C. Elfving and E. A. Mielke report in Acta Hort. […] In the most extreme case, no floral development at all takes place in the year after the treatment.

pear trees = details: cited from earlier work

| Compound | Flowering in the subsequent year, April 2003 ([1]; Location 1, ProCa alone 150 g/ha on 15th April, 14th May, 16th June 2002, total 450 g/ha, untreated 183) | Flowering in the subsequent year, April 2003 ([1]; Location 2, ProCa alone four applications 120/87/87/95 g/ha (12th April, 3rd, 15th, 30th May 2002), total 389 g/ha, untreated 250) | Flowering in the subsequent year, April 2003 ([1]; Location 2, ProCa alone three applications 120/87/87 g/ha (12th April, 3rd, 15th May 2002), total 294 g/ha, untreated 250) | Floral development in the year following the treatment (summary in words) ([1]; pear trees, Tables 1 and 2) | Floral development in the year after the treatment [2] | Subsequent flowering (pear trees) |
| --- | --- | --- | --- | --- | --- | --- |
| prohexadione-calcium [ProCa] | 137 number of inflorescences/tree | 157 number of inflorescences/tree | 152 number of inflorescences/tree | reduced floral development | markedly reduced floral development | reduced subsequent flowering |
| O=C1CC(C(=O)O)CC(=O)C1=C(O)C1CC1 (centres unmarked) [trinexapac] | – | – | – | – | markedly reduced floral development | – |
| CCOC(=O)C1CC(=O)C(=C(O)C2CC2)C(=O)C1 (centres unmarked) [trinexapac-ethyl] | – | – | – | – | markedly reduced floral development | – |
